For data set [1], the system named is Human immunodeficiency virus 1. As to the kind of experiment: Anti-HIV activity in acutely infected H9 lymphocytes. It counts as functional, organism-based.
A short description of data set [2]: (§1) Tested for in vitro therapeutic index as the ratio of IC50 to EC50 in acutely infected H9 Lymphocytes. It counts as organism-based, Human immunodeficiency virus 1. To be noted: human immunodeficiency virus 1, H9 lymphocytes acutely infected with HIV-1; read-out: TI.
For data set [3], the system named is Human immunodeficiency virus 1. The data set is described as §1. It counts as organism-based. The note with it: Human immunodeficiency virus 1.
A short description of data set [4]: Tested for in vitro therapeutic index as the ratio of IC50 to EC50 in acutely infected U937. The note with it: human, acutely infected U937 cells; read-out: TI. It counts as cell-based, U-937.
Another data set has as its system U-937. As to the kind of experiment: Compound was tested for anti-HIV activity in acutely infected U937. It counts as functional, cell-based. To be noted: Homo sapiens.
Data set [5] in a line: Tested for in vitro therapeutic index as the ratio of IC50 to EC50 in PBMCs. The note with it: human, read-out: TI.

For orientation: EC50 means the concentration needed to bring the measured effect to its halfway point. The molecule `CC1(C)Oc2ccc3ccc(=O)oc3c2C(OC(=O)c2cccc(Cl)c2)C1O` (stereo not given) had an EC50 in data set [1] (Human immunodeficiency virus 1) of 4.2 µM. For the same molecule, the selectivity ratio in data set [2] came to 2.4.
For `CC(C)(C)c1ccc(C(=O)OC2c3c(ccc4ccc(=O)oc34)OC(C)(C)C2OC(=O)c2ccc(C(C)(C)C)cc2)cc1` (stereo not given) the same measures were less than 1.4 µM and more than 2.2.
For `CCC(C)C(=O)OC1c2c(ccc3ccc(=O)oc23)OC(C)(C)C1OC(=O)C(C)CC` (stereo not given) the same measures were 7 µM and 14.4.
For `CC1(C)Oc2ccc3ccc(=O)oc3c2C(N=[N+]=[N-])C1O` (stereo not given) the same measures were 116 µM and 2.9.
Take `CC(C)=CC(=O)OC1c2c(ccc3ccc(=O)oc23)OC(C)(C)C1OC(=O)C=C(C)C` (stereo not given): it took 4.7 µM to reach a half-maximal effect in data set [1] (Human immunodeficiency virus 1) (EC50). Also, the selectivity ratio in data set [2] is 3.5.
For `CC1(C)Oc2ccc3ccc(=O)oc3c2C(OC(=O)c2cccc(Cl)c2)C1OCc1ccccc1` (stereo not given) the same measures were 3.1 µM and 5.
The matching figures for `COC1C(OC(=O)c2cccc(Cl)c2)c2c(ccc3ccc(=O)oc23)OC1(C)C` (stereo not given): 241 µM and 0.34.
`CC(=O)OC1c2c(ccc3ccc(=O)oc23)OC(C)(C)C1OCc1ccccc1` (stereo not given) returned an EC50 in data set [1] (Human immunodeficiency virus 1) of 38 µM. Besides, in data set [2], the selectivity ratio was 2.3.
The matching figures for `CC(C)CC(=O)OC1C(OC(=O)c2cccc(Cl)c2)c2c(ccc3ccc(=O)oc23)OC1(C)C` (stereo not given): 9.3 µM and 1.4.
The matching figures for `CC(=O)OC1C(N=[N+]=[N-])c2c(ccc3ccc(=O)oc23)OC1(C)C` (stereo not given): 116 µM and 1.
For `CC(C)[C@H]1CC[C@H](C)C[C@@H]1OC(=O)OC1c2c(ccc3ccc(=O)oc23)OC(C)(C)C1OC(=O)O[C@@H]1C[C@H](C)CC[C@H]1C(C)C` (stereo not given in full) the same measures were 11.4 µM and 2.9.
Molecule `CC(C)(C)CC(=O)O[C@@H]1c2c(ccc3ccc(=O)oc23)OC(C)(C)[C@@H]1OC(=O)CC(C)(C)C` yielded an EC50 in data set [1] (Human immunodeficiency virus 1) of 21.8 µM. Further, in data set [2], the selectivity ratio came out at 2.
In data set [1] (Human immunodeficiency virus 1), `CC1(C)Oc2ccc3ccc(=O)oc3c2C(O)C1OCc1ccccc1` (stereo not given) yielded an EC50 of 43 µM. Moreover, the selectivity ratio in data set [2] was 2.7.
Take `CC1(C)Oc2ccc3ccc(=O)oc3c2[C@@H](OC(=O)C23CCC(C)(C(=O)O2)C3(C)C)[C@H]1OC(=O)C12CCC(C)(C(=O)O1)C2(C)C` (mixture of isomers; 16): the figures for the EC50 (in data set [1]; in the data set on U-937) were 4 µM and 0.0021 µM, respectively. Moreover, the TI in data set [3] worked out at 136719. Further, the selectivity ratio stood at 11700 in data set [4] and 472 in data set [5].
Take `CC1(C)Oc2ccc3ccc(=O)oc3c2[C@@H](OC(=O)C23CCC(C)(C(=O)O2)C3(C)C)[C@H]1OC(=O)C12CCC(C)(C(=O)O1)C2(C)C` (mixture of isomers; 17): the response in data set [1] was half-maximal at 145 µM (EC50). The TI in data set [3] was 1.1.
The molecule `CC1(C)Oc2ccc3ccc(=O)oc3c2C(OC(=O)c2cccc(Cl)c2)C1OC1CCCCO1` (single isomer, unassigned) gave a concentration giving a half-maximal response (EC50) in data set [1] (Human immunodeficiency virus 1) of 8.3 µM. For the same molecule, the selectivity ratio in data set [2] turned out to be 10.
`CC(=O)OC1c2c(ccc3ccc(=O)oc23)OC(C)(C)C1OC(C)=O` (stereo in doubt; 8): the response in data set [1] (Human immunodeficiency virus 1) was half-maximal at 69.4 µM (EC50). Further, the TI in data set [3] stood at 0.4.
The molecule `CC(C)CC(=O)OC1c2c(ccc3ccc(=O)oc23)OC(C)(C)C1OC(=O)CC(C)C` (stereo in doubt; 9) registered an EC50 in data set [1] of 7 µM. Moreover, the selectivity ratio in data set [2] stood at 2.
As to `CC(=O)OC1c2c(ccc3ccc(=O)oc23)OC(C)(C)C1OC(C)=O` (stereo in doubt; 37), the response in data set [1] was half-maximal at 43 µM (EC50). In data set [3], the TI stood at 3.
For the molecule `CC1(C)Oc2ccc3ccc(=O)oc3c2C(OC(=O)C23CCC(C)(C(=O)O2)C3(C)C)C1OC(=O)C12CCC(C)(C(=O)O1)C2(C)C` (stereo in doubt; 38), the EC50 in data set [1] (Human immunodeficiency virus 1) was 24.1 µM. For the same molecule, the selectivity ratio in data set [2] was 3.
As to `CC1(C)Oc2ccc3ccc(=O)oc3c2C(OC(=O)C23CCC(C)(C(=O)O2)C3(C)C)C1OC(=O)C12CCC(C)(C(=O)O1)C2(C)C` (stereo in doubt; 39), a half-maximal response in data set [1] (EC50) required 32 µM. In data set [3], the TI is reported as more than 5.
The matching figures for `CC(C)CC(=O)OC1c2c(ccc3ccc(=O)oc23)OC(C)(C)C1OC(=O)CC(C)C` (stereo in doubt; 42): 20.9 µM and 3.
For `C/C=C(\C)C(=O)O[C@@H]1c2c(ccc3ccc(=O)oc23)OC(C)(C)[C@@H]1OC(C)=O` [PTERYXIN], a half-maximal effect in data set [1] (Human immunodeficiency virus 1) (EC50) was put at 4.6 µM. Further, in data set [2], the selectivity ratio is 4.5.
For `CC1(C)C=Cc2c(ccc3ccc(=O)oc23)O1` [SESALIN] the same measures were 3.5 µM and 5.
For `CC(=O)O[C@@H]1[C@H](OC(=O)CC(C)C)c2c(ccc3ccc(=O)oc23)OC1(C)C` [SUKSDORFIN] the same measures were 2.6 µM and 30.6.
For `Cc1cn([C@H]2C[C@H](N=[N+]=[N-])[C@@H](CO)O2)c(=O)[nH]c1=O` [ZIDOVUDINE] the same measures were 0.15 µM and 12500.
